Measurements reported in PMC10164576, “Interaction with the carboxy-terminal tip of SSB is critical for RecG function in E. coli” (Nucleic Acids Research, 2023).
Residue numbers refer to the chain shown, from its start. Where a SMILES comes first, the peptide text is derived from it. Where no end group is shown, it is not given here. The star is where a group is joined. 6FAM = O=C1OC2(c3ccc(O)cc3Oc3cc(O)ccc32)c2cc(C(=O)*)ccc21

How the values were obtained:
[1] = system: E. coli ssb mutant strains (ssbΔ151–166, ssbΔ139–164, ssbΔ130–166); assay: DNA damage sensitivity spot plate assay of ssb IDL deletion strains; format: cell-based; settings: ssbΔ151–166, ssbΔ139–164 and ssbΔ130–166 versus MG1655; LB plates, 37°C overnight
Experimental: MG1655, recG, and ssb IDL mutant strains were tested for sensitivity to UV light, ciprofloxacin, or mitomycin C. A ΔrecA strain (EAW20) was used as a sensitive control in the ssb IDL experiments. Overnight cultures set in biological triplicate were used to inoculate fresh LB. Cells were grown at 37°C with shaking to an OD600 nm of 0.2 and serially diluted 10-fold in 1 × PBS. Ten μl of each dilution was spotted onto square LB agar plates (for UV) or LB plates containing DNA damaging agents (ciprofloxacin or mitomycin C) poured fresh and kept in the dark. UV sensitivity plates were exposed to shortwave light (254 nm) using a Spectrolinker XL-1000 UV crosslinker (Spectronics Corp) and incubated at 37°C overnight in the dark. Plates were imaged on an iBright Imaging System. […] Briefly, dilutions of each strain were plated onto an LB plate exposed to 0, 50 or 100 J/m^2. Plates were incubated under foil at 37°C overnight, and colonies were counted to obtain colony forming units (CFU)/ml and percent relative survival values. […]
(A) Spot plate assay showing growth of 10-fold serially diluted MG1655 (wildtype ssb), ΔrecA, ssbΔ151–166, ssbΔ139–164, ssbΔ130–166, and ssbΔ120–166 strains exposed to varying UV (top), ciprofloxacin (center), or mitomycin C (bottom) doses. (B) Quantification of strain UV percent survival relative to CFU/ml of the strain at no UV exposure.

AlkB protein = settings: peptide identical to IDL residues 152–169; cited from earlier work
Excerpt: The IDL peptide that was used included residues 152–169 of SSB, which has two of the three PxxP motifs in E. coli SSB.

RecG (WT) = target: T1, RecG (WT) (Escherichia coli, UniProt P24230); assay: Fluorescence anisotropy binding of 6-FAM-labelled SSB peptides to wildtype RecG; parameters: species or system E. coli; settings: read-out: FP K D; WT RecG; fluorescence anisotropy; 10 nM N-terminal 6-FAM peptide; 0.2 M potassium glutamate, 25 mM Tris-acetate pH 7.6, 10 mM magnesium acetate; 30 min at room temperature, read at 25°C; one site fit; triplicate
T1 construct: RecG was expressed in STL2669/pT7pol26 (a gift from Dr Susan Lovett, Brandeis University) with overexpression plasmid pEAW111; made in house; host or cells: E. coli STL2669/pT7pol26
Experimental: SSB peptides (sequences listed in Figure 2) were designed with an N-terminal tryptophan residue for quantification and N-terminal 6-FAM label (Genscript). RecG was incubated with 0.2 M potassium glutamate, 1 mM DTT, 0.1 μg/ml BSA, 1 × RecA buffer (25 mM Tris-acetate, pH 7.6, 5% w/v glycerol, 3 mM potassium glutamate, 10 mM magnesium acetate, 1 mM DTT), and 10 nM labeled peptide at room temperature for 30 min. Fluorescence polarization (FP) values were measured at 25°C using a Beacon 2000 Fluorescence Polarization System. Polarization values were normalized to the FP value measured at 0 nM RecG. Normalized FP was converted to normalized anisotropy. Experiments were performed in triplicate, and the data were fit to a one site binding model (, where X is ligand concentration, Y is normalized anisotropy, Bmax is the maximum anisotropy, and KD is the dissociation constant) using GraphPad Prism Software.
Figure 2. RecG binds directly and specifically to the SSB-Ct. (A) Fluorescence anisotropy binding isotherms for RecG binding to SSB-Ct (black), SSB113 (violet), SSBΔF (blue), or SSB IDL (green) peptides. Peptide sequences are listed in parentheses with * representing an N-terminal 6-FAM label. Anisotropy values are normalized to the reading at 0 μM RecG. […] (B–E) ITC analysis of RecG/SSB binding. Thermograms (top) and binding isotherms (bottom) of titrations of (B) full-length SSB, (C) SSB-Ct peptide, (D) SSBΔF or (E) SSBΔF peptide into RecG solutions.
Two models explaining how RecG interacts with SSB have been proposed - RecG could interact with the SSB-Ct ([29]) or RecG could interact with the IDL ([48],[49]). To begin testing each model, we used an equilibrium fluorescence anisotropy assay to measure RecG binding to fluorescently labeled SSB-Ct or IDL peptides (Figure 2). Titration of RecG with the SSB-Ct peptide led to an increase in fluorescence anisotropy, which occurs when protein binding slows the tumbling rate of a labeled peptide ([90]). […] KD values in the low micromolar range are typical for SSB/SIP complexes ([10],[12–14],[19],[23]). […]

[2] = system: SSB-interacting proteins (SIPs); settings: in vitro; cited from earlier work
Excerpt: Most SSB-interacting proteins (SIPs) studied to date appear to share a conserved mode of SSB recognition in which they dock onto the SSB-Ct. Several SIPs have been co-crystalized with SSB-Ct peptides and their SSB-binding pockets have been validated in biochemical and/or genetic studies ([10],[12],[19],[20],[35]). SSB-Ct binding pockets have also been successfully predicted through computational methods ([36–39]). […] However, structural data ([31],[36],[108]) and predictions ([80]) reveal that the IDL is unstructured, and the length of IDLs across bacterial species varies greatly ([41]). […] Similarly, SSB fluorescent fusion proteins where GFP ...

[3] = target: SSB113 peptide, 6-FAM labelled (E. coli) (UniProt P0AGE0); assay: fluorescence polarisation; RecG titrated against 10 nM 6-FAM peptide; 0.2 M potassium glutamate, 1 mM DTT, 0.1 μg/ml BSA, 1x RecA buffer (25 mM Tris-acetate pH 7.6, 5% glycerol, 10 mM magnesium acetate); 30 min at room temperature, read at 25°C; one site binding model, triplicate
[4] = target: SSBΔF peptide, 6-FAM labelled (E. coli); assay: as above
[5] = target: T2, RecG DNA helicase, wildtype (E. coli, UniProt P24230 1-693); assay: as above; settings: both partners purified
T2 construct: RecG DNA helicase, E. coli, expressed from overexpression plasmid pEAW111; No tag is mentioned; also called WT RecG; source: E. coli STL2669/pT7pol26 with pEAW111, purified (ammonium sulfate, DEAE, Source 15Q, Source 15S)
T2 sequence (looked up): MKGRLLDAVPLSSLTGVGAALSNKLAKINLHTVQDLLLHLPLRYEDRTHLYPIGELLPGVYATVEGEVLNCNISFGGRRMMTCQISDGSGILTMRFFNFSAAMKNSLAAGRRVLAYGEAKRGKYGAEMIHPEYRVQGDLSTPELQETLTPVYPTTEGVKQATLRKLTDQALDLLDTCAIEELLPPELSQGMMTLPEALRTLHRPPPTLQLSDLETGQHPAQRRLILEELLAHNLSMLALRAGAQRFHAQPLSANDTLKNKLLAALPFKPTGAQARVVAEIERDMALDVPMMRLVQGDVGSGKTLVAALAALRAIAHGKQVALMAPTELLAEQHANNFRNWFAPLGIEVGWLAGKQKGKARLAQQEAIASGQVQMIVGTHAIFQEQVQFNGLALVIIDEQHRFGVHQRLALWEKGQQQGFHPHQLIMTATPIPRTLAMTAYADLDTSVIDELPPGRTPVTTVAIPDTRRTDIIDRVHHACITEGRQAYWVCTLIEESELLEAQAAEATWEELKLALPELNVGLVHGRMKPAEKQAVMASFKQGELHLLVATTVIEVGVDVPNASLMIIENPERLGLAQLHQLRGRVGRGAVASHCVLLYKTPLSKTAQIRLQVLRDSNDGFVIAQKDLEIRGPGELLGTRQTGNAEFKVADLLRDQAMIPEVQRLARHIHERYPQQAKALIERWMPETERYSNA

RecG R95A = target: T3, RecG R95A (E. coli, UniProt P24230 1-693, R95A); assay: as above; settings: both partners purified
T3 construct: RecG DNA helicase, E. coli, R95A introduced into pEAW111 to give pEAW1324; The preparation included a very weak nickase contaminant; source: E. coli STL2669/pT7pol26 with pEAW1324, purified (same scheme as wildtype RecG)
T3 sequence (looked up): T2 sequence (looked up) with R95A

SSB113 peptide, 6-FAM labelled (E. coli), sequence (P0AGE0 whole entry, looked up): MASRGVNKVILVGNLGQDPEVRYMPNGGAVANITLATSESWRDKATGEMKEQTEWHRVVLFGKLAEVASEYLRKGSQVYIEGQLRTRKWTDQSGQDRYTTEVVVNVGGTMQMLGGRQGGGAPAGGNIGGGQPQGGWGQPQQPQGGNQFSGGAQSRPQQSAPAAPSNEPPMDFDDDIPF

CO[C@@]12[C@H](COC(N)=O)C3=C(C(=O)C(C)=C(N)C3=O)N1C[C@@H]1N[C@@H]12 [mitomycin C]
DNA damage sensitivity of ssb IDL deletion strains, in words [1]: no change in DNA damage sensitivity compared to MG1655

C[C@H](NC(=O)[C@H](Cc1c[nH]c2ccccc12)NC(=O)c1ccc2c(c1)C1(OC2=O)c2ccc(O)cc2Oc2cc(O)ccc21)C(=O)N[C@@H](CCC(N)=O)C(=O)N[C@@H](CO)C(=O)N[C@@H](CCCNC(=N)N)C(=O)N1CCC[C@H]1C(=O)N[C@@H](CCC(N)=O)C(=O)N[C@@H](CCC(N)=O)C(=O)N[C@@H](CO)C(=O)N[C@@H](C)C(=O)N1CCC[C@H]1C(=O)N[C@@H](C)C(=O)N[C@@H](C)C(=O)N1CCC[C@H]1C(=O)N[C@@H](CO)C(=O)N[C@@H](CC(N)=O)C(=O)N[C@@H](CCC(=O)O)C(=O)N1CCC[C@H]1C(=O)O [IDL 152–169 peptide] (6FAM-WAQSRPQQSAPAAPSNEP-OH; C-terminus assumed)
binding to AlkB, in words (AlkB protein): previously reported to bind to the AlkB protein | Kd (RecG (WT)): > 30 µM

O=C(O)c1cn(C2CC2)c2cc(N3CCNCC3)c(F)cc2c1=O [ciprofloxacin]
DNA damage sensitivity of ssb IDL deletion strains, in words [1]: no change in DNA damage sensitivity compared to MG1655

SSBΔF: SSB protein variant lacking the C-terminal-most Phe residue
interaction with SIPs, in words (SSB-Ct deletions) [2]: eliminates interactions between SSB and SIPs in vitro

B1: RecG DNA helicase, wildtype (enzyme)
chain: T2 sequence (looked up)
Kd [3]: 23 µM | Kd [4]: > 30 µM

B2: SSB-Ct peptide, 6-FAM labelled (peptide)
peptide: 6FAM-WMDFDDDIPF
notes: N-terminal tryptophan residue added for quantification; C-terminal tip of SSB, E. coli; also called fluorescently labeled SSB-Ct peptide; source: synthetic peptide (Genscript)
Kd [5]: 3.1 ± 0.4 µM | Kd (RecG R95A): 1800 ± 400 nM
